# Laboratory results reported in US10100061B2, “Oxazepine compound and agricultural/horticultural insecticide containing said compound as active ingredient, and method for using the same” (NIHON NOHYAKU CO., LTD., priority 2014, dated 2018).
# System: Green Peach Aphid (Myzus Persicae)
# Assay: Test of preventive value against green peach aphid (Test Example 1)
# Type: in vivo
# Conditions: 500 ppm, sprayed over stems and leaves of potted Chinese cabbages, sixth day after spraying
# Method: Test of Preventive Value Against Green Peach Aphid (Myzus Persicae)
# Chinese cabbages were planted in plastic pots, each with a size of 8 cm in diameter and 8 cm in height, after which green peach aphids were propagated and the number of parasitic insects was examined in each pot. An oxazepine compound or salt thereof expressed by General Formula (I) according to the present invention was dispersed in water and the dispersion was diluted to 500 ppm in the form of a reagent, after which the reagent was sprayed over stems and leaves of potted Chinese cabbages and let dry under wind, and the pots were kept in a greenhouse, and on the sixth day after the reagent was sprayed, the number of green peach aphids living parasitically on each Chinese cabbage was examined and the preventive value was calculated based on the formula below, and judgment was made according to the criteria below. Preventive value=100−{(T×Ca)/(Ta×C)}×100 [Mathematical Formula 1] • Ta: Number of parasitic insects inside the treatment area before spraying • T: Number of parasitic insects inside the treatment area after spraying • Ca: Number of parasitic insects inside the non-treatment area before spraying • C: Number of parasitic insects inside the non-treatment area after spraying Judgment Criteria • A - - - Preventive value: 100% • B - - - Preventive value: 99%˜90% • C - - - Preventive value: 89%˜80% • D - - - Preventive value: 79%˜50%
row,Compound,"Preventive value, judgment"
1,O=C1Nc2ccc(Br)cc2Oc2cn(-c3cccnc3)nc21 [8-60],A to D
2,O=C(CN1C(=O)c2nn(-c3cccnc3)cc2Oc2ccccc21)c1ccc(Cl)cc1 [1-76],A to D
3,O=C1NC=COc2cn(-c3cccnc3)nc21 [7-1],A to D
4,CC(C#N)N1C(=O)c2nn(-c3cccnc3)cc2Oc2ccccc21 (stereo not shown) [1-77],A to D
5,CC(C)CN1C(=O)c2nn(-c3cccnc3)cc2Oc2cc(F)ccc21 [8-28],A to D
6,N#CCN1Cc2nn(-c3cccnc3)cc2Oc2cc(F)ccc21 [3-5],A to D
7,Cc1nn(C)c2c1N(CC#N)C(=O)c1nn(-c3cccnc3)cc1O2 [14-5],A to D
8,CN1C(=O)c2nn(-c3cccnc3)cc2Oc2ccc(Br)cc21 [8-63],A to D
9,c1cncc(-n2cc3c(n2)C(N2CCOCC2)=Nc2ccccc2O3)c1 [11-14],A to D
10,CN1C(=O)c2nn(-c3cccnc3)cc2Oc2cccc(Cl)c21 [8-59],A to D
11,CCCCCCCCN1C(=O)c2nn(-c3cccnc3)cc2Oc2ccccc21 [1-53],A to D
12,CN1C(=O)c2nn(-c3cccnc3)cc2Oc2sccc21 [15-2],A to D
13,CN1C(=O)c2nn(-c3cccnc3)cc2Oc2ncc(C(F)(F)F)cc21 [4-10],A to D
14,N#CCN1C(=O)c2nn(-c3cccnc3)cc2Oc2cc(Cl)ccc21 [1-29],A to D
15,O=C1Nc2cc(F)ccc2Oc2cn(-c3cccnc3)nc21 [1-14],A to D
16,CSCN1C(=O)c2nn(-c3cccnc3)cc2Oc2cc(F)ccc21 [8-24],A to D
17,C#CCN1C(=O)c2nn(-c3cccnc3)cc2Oc2ccc(Br)cc21 [8-65],A to D
18,CS(=O)(=O)CN1C(=O)c2nn(-c3cccnc3)cc2Oc2ccc(F)cc21 [8-49],A to D
19,N#CCN1C(=O)c2nn(-c3cccnc3)c(Cl)c2Oc2cc(F)ccc21 [9-5],A to D
20,COc1ccc2c(c1)Oc1cn(-c3cccnc3)nc1C(=O)N2C [1-40],A to D
21,CCC(C)N1C(=O)c2nn(-c3cccnc3)cc2Oc2cc(F)ccc21 (stereo not shown) [8-29],A to D
22,O=C1c2nn(-c3cccnc3)cc2Oc2ccc(F)cc2N1CC1OCCO1 [8-43],A to D

row,Compound,"Preventive value, judgment"
1,O=C1c2nn(-c3cccnc3)cc2Oc2ccccc2N1CCS(=O)(=O)CCC(F)(F)F [8-19],A to D
2,CC(C#N)N1C(=O)c2nn(-c3cccnc3)cc2Oc2ccc(F)cc21 (stereo not shown) [8-50],A to D
3,O=C1c2nn(-c3cccnc3)cc2Oc2ccc(F)cc2N1CC(F)(F)F [8-39],A to D
4,O=CCN1C(=O)c2nn(-c3cccnc3)cc2Oc2ccccc21 [8-15],A to D
5,O=C1c2nn(-c3cccnc3)cc2Oc2ccccc2N1CC[S+]([O-])CCC(F)(F)F (stereo not shown) [8-18],A to D
6,CN(C)C(=O)CN1C(=O)c2nn(-c3cccnc3)cc2Oc2ccccc21 [8-7],A to D
7,CC#CCN1C(=O)c2nn(-c3cccnc3)cc2Oc2ccccc21 [8-5],A to D
8,CN1C(=O)c2nn(-c3cccnc3)cc2Oc2cc(Br)ccc21 [8-61],A to D
9,O=C1Nc2ccccc2Nc2cn(-c3cccnc3)nc21 [10-1],A to D
10,N#CCN1C(=O)c2nn(-c3cccnc3)cc2Oc2sccc21 [15-4],A to D
11,C#CCN1C(=O)c2nn(-c3cccnc3)cc2Oc2sccc21 [15-3],A to D
12,NC(=O)CCN1C(=O)c2nn(-c3cccnc3)cc2Oc2ccccc21 [8-8],A to D
13,N#CCCCN1C(=O)c2nn(-c3cccnc3)cc2Oc2cc(F)ccc21 [8-30],A to D
14,N#CCCCN1C(=O)c2nn(-c3cccnc3)cc2Oc2ccc(F)cc21 [8-51],A to D
15,O=C1c2nn(-c3cccnc3)cc2Oc2ccccc2N1CC1OCCO1 [8-11],A to D
16,O=C1c2nn(-c3cccnc3)cc2Oc2cc(F)ccc2N1CC1CC1 [8-27],A to D
17,O=C1c2nn(-c3cccnc3)cc2Oc2ccccc2N1CCSCCC(F)(F)F [8-17],A to D
18,CON=CCN1C(=O)c2nn(-c3cccnc3)cc2Oc2ccccc21 [8-16],A to D
19,O=C1Nc2ccc(Cl)cc2Oc2c1nn(-c1cccnc1)c2Cl [9-4],A to D
20,C[S+]([O-])CN1C(=O)c2nn(-c3cccnc3)cc2Oc2ccc(F)cc21 (stereo not shown) [8-48],A to D
21,C[S+]([O-])CN1C(=O)c2nn(-c3cccnc3)cc2Oc2ccccc21 (stereo not shown) [8-3],A to D
22,N#CC(F)N1C(=O)c2nn(-c3cccnc3)cc2Oc2cc(F)ccc21 (stereo not shown) [8-33],A to D

row,Compound,"Preventive value, judgment"
1,CN(C)C(=O)N1C(=O)c2nn(-c3cccnc3)cc2Oc2ccccc21 [8-14],A to D
2,Cc1nn(C)c2c1N(C)C(=O)c1nn(-c3cccnc3)cc1O2 [14-2],A to D
3,CC(=O)OCN1C(=O)c2nn(-c3cccnc3)cc2Oc2ccccc21 [8-9],A to D
4,CN1CCN(C2=Nc3cc(F)ccc3Oc3cn(-c4cccnc4)nc32)CC1 [11-13],A to D
5,CC(=O)N1Cc2nn(-c3cccnc3)cc2Oc2ccc(F)cc21 [3-9],A to D
6,O=C1Nc2ccsc2Oc2cn(-c3cccnc3)nc21 [15-1],A to D
7,C[Si](C)(C)C#CC1=Nc2ccccc2Oc2cn(-c3cccnc3)nc21 [11-4],A to D
8,CC(C)=CCN1C(=O)c2nn(-c3cccnc3)cc2Oc2ccccc21 [8-6],A to D
9,O=C1Nc2cccc(Cl)c2Oc2cn(-c3cccnc3)nc21 [1-22],A to D
10,O=CN1C(=O)c2nn(-c3cccnc3)cc2Oc2ccc(F)cc21 [8-53],A to D
11,O=C1c2nn(-c3cccnc3)cc2Oc2ccc(F)cc2N1CC1CC1 [8-36],A to D
12,NC(=O)CN1C(=O)c2nn(-c3cccnc3)cc2Oc2ccc(F)cc21 [8-52],A to D
13,COCN1C(=O)c2nn(-c3cccnc3)cc2Oc2c(F)cccc21 [8-22],A to D
14,CN1C(=O)c2nn(-c3cccnc3)cc2Oc2ccc(Cl)cc21 [8-55],A to D
15,C#CCN1C(=O)c2nn(-c3cccnc3)cc2Oc2c1c(C)nn2C [14-4],A to D
16,CSCN1C(=O)c2nn(-c3cccnc3)cc2Oc2ccc(F)cc21 [8-47],A to D
17,CN1C(=O)c2nn(-c3cncc(Br)c3)cc2Oc2ccccc21 [1-83],A to D
18,CN1CCN(C2=Nc3ccccc3Oc3cn(-c4cccnc4)nc32)CC1 [11-12],A to D
19,CN1C(=O)c2nn(-c3cccnc3)cc2Oc2cc(I)ccc21 [8-67],A to D
20,O=C1c2nn(-c3cccnc3)cc2Oc2ccc(F)cc2N1CCN1CCOCC1 [8-44],A to D
21,CN1Cc2nn(-c3cccnc3)cc2Oc2ccccc21 [3-2],A to D

# System: Small Brown Planthopper (Laodelphax Striatellus)
# Assay: Test of insecticidal efficacy against small brown planthopper (Test Example 2)
# Type: in vivo
# Conditions: 500 ppm, rice plants soaked 30 seconds, third-instar larvae, eight days after inoculation; criteria same as in Test Example 1
# From the text: Test of Insecticidal Efficacy Against Small Brown Planthopper (Laodelphax Striatellus)
row,Compound,"Corrected insect mortality, judgment"
1,O=C(CN1C(=O)c2nn(-c3cccnc3)cc2Oc2ccccc21)c1ccc(Cl)cc1 [1-76],A to D
2,O=C1NC=COc2cn(-c3cccnc3)nc21 [7-1],A to D
3,CC(C#N)N1C(=O)c2nn(-c3cccnc3)cc2Oc2ccccc21 (stereo not shown) [1-77],A to D
4,Cc1nn(C)c2c1N(CC#N)C(=O)c1nn(-c3cccnc3)cc1O2 [14-5],A to D
5,CCCCCCCCN1C(=O)c2nn(-c3cccnc3)cc2Oc2ccccc21 [1-53],A to D
6,CN1C(=O)c2nn(-c3cccnc3)cc2Oc2ncc(C(F)(F)F)cc21 [4-10],A to D
7,N#CCN1C(=O)c2nn(-c3cccnc3)cc2Oc2cc(Cl)ccc21 [1-29],A to D
8,O=C1Nc2cc(F)ccc2Oc2cn(-c3cccnc3)nc21 [1-14],A to D
9,Cc1ccc2c(c1)Oc1cn(-c3cccnc3)nc1C(=O)N2C [1-31],A to D
10,CSCN1C(=O)c2nn(-c3cccnc3)cc2Oc2cc(F)ccc21 [8-24],A to D
11,CS(=O)(=O)CN1C(=O)c2nn(-c3cccnc3)cc2Oc2ccc(F)cc21 [8-49],A to D
12,COc1ccc2c(c1)Oc1cn(-c3cccnc3)nc1C(=O)N2C [1-40],A to D
13,N#CCN1C(=O)c2nn(-c3cccnc3)cc2Oc2ccc(Cl)cc21 [8-57],A to D
14,CCOCN1C(=O)c2nn(-c3cccnc3)cc2Oc2ccccc21 [8-21],A to D
15,C=CCN1C(=O)c2nn(-c3cccnc3)cc2Oc2ccc(Cl)cc21 [8-58],A to D
16,C#CCN1Cc2nn(-c3cccnc3)cc2Oc2ccccc21 [3-3],A to D
17,N#CCN1C(=O)c2nn(-c3cccnc3)cc2Oc2ccc(Br)cc21 [8-66],A to D
18,C=CCN1C(=O)c2nn(-c3cccnc3)cc2Oc2c1c(C)nn2C [14-3],A to D
19,COCOC1=Nc2ccccc2Oc2cn(-c3cccnc3)nc21 [11-16],A to D
20,C=CCN1C(=O)c2nn(-c3cccnc3)cc2Oc2cc(F)ccc21 [8-23],A to D
21,Fc1ccc2c(c1)N=C(N1CCOCC1)c1nn(-c3cccnc3)cc1O2 [11-15],A to D
22,C=CCN1C(=O)c2nn(-c3cccnc3)cc2Oc2ccc(Br)cc21 [8-64],A to D
23,CN(C)CCN1C(=O)c2nn(-c3cccnc3)cc2Oc2ccccc21 [1-69],A to D
